Results taken from US20210001138A1, “ELECTROSTATIC DRUG DELIVERY” (Nano Hesgarsazan Salamat Arya, priority 2019, published 2021).

Tested on: MC4L2 mice tumor
Assay: Sonography of MC4L2 mice tumor after injection of the free drug, with or without electrostatic field
Conditions: for trace of tumor after the second injection period: every 3 days
Procedure: Here, three injection periods of Cisplatin were carried out every 3 days for a group of mice having a MC4L2 mice tumor as an example of triple-positive breast cancer. About 20 mg/kg of Cisplatin was applied for a Control sample with a MC4L2 mice tumor without applying an electrostatic field.
Here, four injection periods of Doxorubicin were carried out every 3 days for a group of mice having a MC4L2 mice tumor as an example of triple-positive breast cancer. About 10 mg/kg of Doxorubicin was applied for a Control sample with a MC4L2 mice tumor without applying an electrostatic field. […] All sonography images were taken after about 10 days of treatments, and all drug injections were done every about 3 days.

SMILES	tumor outcome in sonography images (about 5 mg/kg Cisplatin followed by electrostatic field, FIG. 5B)	trace of tumor after the second injection period (about 5 mg/kg Cisplatin per period, then DC electrostatic field -60 V to -120 V via conductive patch, sample mouse No. 1)	reduction in tumor volume (about 20 mg/kg Cisplatin, without electrostatic field, FIG. 4B vs FIG. 4A)	tumor outcome in sonography images (about 1 mg/kg Doxorubicin followed by electrostatic field, sonography after about 10 days, FIG. 9B)	trace of tumor after the second injection period (about 1 mg/kg Doxorubicin per period, then DC electrostatic field 60 V to 120 V via conductive patch, sample mouse No. 2)
N.N.[Cl][Pt][Cl] [Cisplatin]	removed completely	no observable trace of tumor	about 60%	–	–
COc1cccc2c1C(=O)c1c(O)c3c(c(O)c1C2=O)C[C@@](O)(C(=O)CO)C[C@@H]3O[C@H]1C[C@H](N)[C@H](O)[C@H](C)O1 [Doxorubicin]	–	–	–	removed completely	no observable trace of tumor
